Settings: Liquid; for speed of sound: Linear variable-path acoustic interferometer; for mass density: Vibrating tube method

CCCC[n+]1ccn(C)c1.O=S(=O)([N-]S(=O)(=O)C(F)(F)F)C(F)(F)F
Settings	mass density [kg/m3]	speed of sound [m/s]
283.15 K, 100 kPa	–	1264.5
283.15 K, 5090 kPa	–	1280.8
283.15 K, 9980 kPa	–	1296.8
283.15 K, 20020 kPa	–	1327.9
283.15 K, 29950 kPa	–	1357.3
283.15 K, 44830 kPa	–	1398.7
283.15 K, 59710 kPa	–	1437.5
283.15 K, 79700 kPa	–	1486.8
283.15 K, 98920 kPa	–	1531.3
283.15 K, 124410 kPa	–	1586.6
283.15 K, 151000 kPa	–	1640.5
293.15 K, 100 kPa	–	1238.1
293.15 K, 5000 kPa	–	1254.6
293.15 K, 10020 kPa	–	1271.2
293.15 K, 20010 kPa	–	1302.5
293.15 K, 59650 kPa	–	1411.8
293.15 K, 99720 kPa	–	1505.9
293.15 K, 151200 kPa	–	1611.9
298.15 K, 100 kPa	1437.04	–
298.15 K, 5000 kPa	1440.78	–
298.15 K, 7460 kPa	1442.64	–
298.15 K, 9920 kPa	1444.45	–
298.15 K, 12380 kPa	1446.22	–
298.15 K, 14840 kPa	1447.99	–
298.15 K, 17300 kPa	1449.71	–
298.15 K, 19760 kPa	1451.41	–
298.15 K, 22210 kPa	1453.09	–
298.15 K, 24670 kPa	1454.75	–
298.15 K, 27130 kPa	1456.4	–
298.15 K, 29590 kPa	1458.04	–
298.15 K, 32050 kPa	1459.61	–
298.15 K, 34510 kPa	1461.19	–
298.15 K, 36970 kPa	1462.78	–
298.15 K, 39430 kPa	1464.31	–
298.15 K, 41880 kPa	1465.81	–
298.15 K, 44340 kPa	1467.33	–
298.15 K, 46800 kPa	1468.8	–
298.15 K, 49260 kPa	1470.28	–
298.15 K, 51720 kPa	1471.69	–
298.15 K, 54180 kPa	1473.13	–
298.15 K, 56640 kPa	1474.55	–
298.15 K, 59100 kPa	1475.94	–
303.14 K, 100 kPa	1432.49	–
303.14 K, 5000 kPa	1436.13	–
303.14 K, 7460 kPa	1437.93	–
303.14 K, 9920 kPa	1439.73	–
303.14 K, 12380 kPa	1441.51	–
303.14 K, 14840 kPa	1443.23	–
303.14 K, 17300 kPa	1444.96	–
303.14 K, 19760 kPa	1446.65	–
303.14 K, 22210 kPa	1448.37	–
303.14 K, 24670 kPa	1449.99	–
303.14 K, 27130 kPa	1451.64	–
303.14 K, 29590 kPa	1453.25	–
303.14 K, 32050 kPa	1454.87	–
303.14 K, 34510 kPa	1456.47	–
303.14 K, 36970 kPa	1458.05	–
303.14 K, 39430 kPa	1459.6	–
303.14 K, 41880 kPa	1461.17	–
303.14 K, 44340 kPa	1462.67	–
303.14 K, 46800 kPa	1464.2	–
303.14 K, 49260 kPa	1465.69	–
303.14 K, 51720 kPa	1467.16	–
303.14 K, 54180 kPa	1468.67	–
303.14 K, 56640 kPa	1470.14	–
303.14 K, 59100 kPa	1471.59	–
303.15 K, 100 kPa	–	1217.5
303.15 K, 5030 kPa	–	1234
303.15 K, 10000 kPa	–	1250.7
303.15 K, 20030 kPa	–	1282.8
303.15 K, 59720 kPa	–	1393.5
303.15 K, 98960 kPa	–	1485.9
303.15 K, 150840 kPa	–	1592.9
308.09 K, 100 kPa	1427.92	–
308.09 K, 5000 kPa	1431.5	–
308.09 K, 7460 kPa	1433.28	–
308.09 K, 9920 kPa	1435.07	–
308.09 K, 12380 kPa	1436.81	–
308.09 K, 14840 kPa	1438.55	–
308.09 K, 17300 kPa	1440.27	–
308.09 K, 19760 kPa	1441.96	–
308.09 K, 22210 kPa	1443.64	–
308.09 K, 24670 kPa	1445.32	–
308.09 K, 27130 kPa	1446.94	–
308.09 K, 29590 kPa	1448.61	–
308.09 K, 32050 kPa	1450.21	–
308.09 K, 34510 kPa	1451.8	–
308.09 K, 36970 kPa	1453.43	–
308.09 K, 39430 kPa	1454.99	–
308.09 K, 41880 kPa	1456.59	–
308.09 K, 44340 kPa	1458.14	–
308.09 K, 46800 kPa	1459.69	–
308.09 K, 49260 kPa	1461.21	–
308.09 K, 51720 kPa	1462.74	–
308.09 K, 54180 kPa	1464.26	–
308.09 K, 56640 kPa	1465.8	–
308.09 K, 59100 kPa	1467.28	–
313.15 K, 100 kPa	1422.99	1194.5
313.15 K, 5000 kPa	1426.56	–
313.15 K, 5010 kPa	–	1211.5
313.15 K, 7460 kPa	1428.4	–
313.15 K, 9920 kPa	1430.14	–
